What was measured:
MAO-B = biological target: T1, MAO-B (Rattus norvegicus, UniProt P19643); test: Monoamine oxidase-B (MAO-B) inhibition assay; assay type: biochemical; settings: for IC50: Table II; for Ratio A/B: ratio of MAO-A IC50 to MAO-B IC50
T1 construct: Both Forms of Monoamine Oxidase in the Rat Brain; from tissue
T1 sequence (P19643 1-520): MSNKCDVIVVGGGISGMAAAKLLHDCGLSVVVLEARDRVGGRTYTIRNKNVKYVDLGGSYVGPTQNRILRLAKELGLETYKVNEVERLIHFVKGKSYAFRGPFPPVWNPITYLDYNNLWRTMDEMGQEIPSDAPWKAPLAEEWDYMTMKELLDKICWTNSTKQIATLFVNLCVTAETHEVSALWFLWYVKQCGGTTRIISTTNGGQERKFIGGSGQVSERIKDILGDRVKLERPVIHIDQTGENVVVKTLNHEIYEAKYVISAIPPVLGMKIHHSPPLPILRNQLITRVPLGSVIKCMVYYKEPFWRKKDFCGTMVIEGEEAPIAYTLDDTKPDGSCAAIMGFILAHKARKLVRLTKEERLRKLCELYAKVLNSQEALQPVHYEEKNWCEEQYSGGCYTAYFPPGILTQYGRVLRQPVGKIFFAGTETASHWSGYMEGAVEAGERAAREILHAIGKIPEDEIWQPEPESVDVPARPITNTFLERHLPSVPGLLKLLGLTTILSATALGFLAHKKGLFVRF

MAO-A = biological target: T2, MAO-A (Rattus norvegicus, UniProt P21396); test: Monoamine oxidase-A (MAO-A) inhibition assay; assay type: biochemical; settings: Table II
T2 construct: Both Forms of Monoamine Oxidase in the Rat Brain; from tissue
T2 sequence (P21396 1-526): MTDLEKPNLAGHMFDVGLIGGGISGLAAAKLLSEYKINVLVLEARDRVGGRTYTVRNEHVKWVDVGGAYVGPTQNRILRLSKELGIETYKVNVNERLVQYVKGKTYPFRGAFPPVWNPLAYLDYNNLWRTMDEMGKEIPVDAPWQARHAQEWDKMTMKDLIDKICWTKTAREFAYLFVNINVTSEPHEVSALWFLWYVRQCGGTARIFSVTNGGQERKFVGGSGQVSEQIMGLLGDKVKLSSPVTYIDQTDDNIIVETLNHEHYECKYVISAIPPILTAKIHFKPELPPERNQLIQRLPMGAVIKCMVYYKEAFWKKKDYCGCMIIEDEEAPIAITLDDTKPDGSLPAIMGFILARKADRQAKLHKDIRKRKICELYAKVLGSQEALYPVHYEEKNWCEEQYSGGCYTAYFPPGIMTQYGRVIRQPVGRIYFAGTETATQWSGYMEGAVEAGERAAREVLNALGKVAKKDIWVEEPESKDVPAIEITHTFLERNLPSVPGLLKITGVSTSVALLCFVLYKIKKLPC

AMPT test (ED50) = assay type: in vivo; settings: Table II; method not described

Compound	IC50 (MAO-B) [µM]	Ratio A/B (MAO-B)	IC50 (MAO-A) [µM]	ED50 (AMPT test (ED50)) [mg/kg]
O=C1NC(=O)C(=Cc2ccc(OCc3cccc(Cl)c3)cc2)S1 [Example 8, 5-{4-[(3-Chlorophenyl)methoxy]phenylmethylene}-2,4-thiazolidinedione]	30	> 3	> 100	
O=C1NC(=O)C(Cc2ccc(OCC34CC5CC(CC(C5)C3)C4)cc2)S1 (stereo not shown) [Example 7, 5-[4-(3-Adamantylmethoxy)phenylmethyl]-2,4-thiazolidinedione]	0.1	300	30	
CCCCCCOc1ccc(CC2SC(=O)NC2=O)cc1 (stereo not shown) [Example 6, 5-[(4-Hexyloxyphenyl)methyl]-2,4-thiazolidinedione]	0.1	100	10	6.71
N#CCCCN1C(=O)SC(=Cc2ccc(OCc3cccc(Cl)c3)cc2)C1=O [Example 9]	100	< 1	30	
N#CCCCCN1C(=O)SC(=Cc2cccc(OCc3ccccc3)c2)C1=O [Example 3]	0.7	> 1428	> 1000	
O=C1NC(=O)C(=Cc2ccc(OCCc3ccccc3)cc2)S1 [Example 4, 5-[4-(2-Phenylethoxy)phenylmethylene]-2,4-thiazolidinedione]	0.1	> 300	30	
N#CCN1C(=O)SC(=Cc2ccc(OCCc3ccccc3)cc2)C1=O [Example 5, 2,4-Dioxo-5-[4-(2-phenylethoxy)phenylmethylene]-3-thiazolidineacetonitrile]	2	15	30	
N#CCCCN1C(=O)SC(=Cc2cccc(OCc3ccccc3)c2)C1=O [Example 2, 2,4-Dioxo-5-[3-(phenylmethoxy)-phenylmethylene]-4-thiazolidinebutanenitrile]	0.1	> 50000	> 5000	
O=C1NC(=O)C(=Cc2cccc(OCc3ccccc3)c2)S1 [Example 1, 5-[3-(Phenylmethoxy)phenylmethyl-ene]-2,4-thiazolidinedione]	100	1	100	

Reference: US5326770A, “Monoamine oxidase-B (MAO-B) inhibitory 5-substituted 2,4-thiazolidinediones useful in treating memory disorders of mammals” (priority 1992, dated 1994)
